Data set [1] relates to SMN2 minigene (full length SMN2 minigene mRNA containing SMN2 exon 7). As to the kind of experiment: SMN2 minigene mRNA splicing RT-qPCR assay in cultured cells. It is filed as cell-based, human. The conditions noted are these: Homo sapiens, HEK293-H; HEK293H cells stably transfected with SMN2-A minigene; 24 hours; 7-point concentration curve; 1.5-fold relative to vehicle-treated cells; read-out: EC1.5x for production of full length SMN2 mRNA. In short, it runs like this:
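HEK293H cells stably carrying the SMN2-A minigene treated 24 h at 37° C with compound (DMSO, 200× stock), then lysed. Multiplex RT-qPCR (SMN primers 0.4 μM final; 40 cycles) measures full-length exon 7-containing minigene mRNA, normalized to GAPDH and to vehicle; EC1.5x derived and binned by stars.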

For the next data set, the system named is Smn protein. Kind of data set: Smn protein assay in cultured cells (SMN HTRF). As to conditions: 48 hours; for EC1.5x (concentration giving 1.5-fold Smn protein increase): SMA Type 1 patient fibroblast cells (GM03813), 7-point concentration curve, SMN HTRF, concentration producing 1.5 times Smn protein vs DMSO vehicle control, read-out: EC1.5x for Smn protein expression; for maximum fold (Fold) increase of Smn protein: SMA patient fibroblast cells, 7-point concentration data, fold increase relative to vehicle control (SMN HTRF). In kind it is cell-based, human. The method, boiled down:
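Lysates in RIPA with protease inhibitors are incubated overnight at room temperature with HTRF anti-SMN antibodies. EC1.5x is derived from fold increase in ΔF over vehicle.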

Molecules are shown by their SMILES.

For the compound `Cc1cn2cc(-c3cc4ccc(OCCN[C@@H](C)CO)cc4oc3=O)nc2c(C)n1` [Compound 947, 3-(6,8-dimethylimidazo[1,2-a]pyrazin-2-yl)-7-(2-{[(2S)-1-hydroxypropan-2-yl]amino}ethoxy)-2H-chromen-2-one], the melting point lay within 186 to 188 °C. Also, the EC (1.5-fold) in data set [1] is less than 0.1 µM. Besides, in the data set on Smn protein, the EC1.5x (concentration giving 1.5-fold Smn protein increase) was less than 300 nM; the “maximum fold (Fold) increase of Smn protein” value (from here on “maximum fold (Fold) increase”) is “**** (fold increase between >1.5 and ≤1.65)”.

`Cc1cn2cc(-c3cc4ccc(N5CCCNCC5)cc4oc3=O)cc2cn1` [Compound 638, 7-(1,4-diazepan-1-yl)-3-(3-methylpyrrolo[1,2-a]pyrazin-7-yl)-2H-chromen-2-one] returned a melting point of 178 to 181 °C. Moreover, the EC (1.5-fold) in data set [1] was less than 0.1 µM. In the data set with Smn protein, the EC1.5x (concentration giving 1.5-fold Smn protein increase) was less than 300 nM; the “maximum fold (Fold) increase” value was “**** (fold increase between >1.5 and ≤1.65)”.

`Cc1cc(F)c2nc(-c3cc4ccc(N5CCCNCC5)cc4oc3=O)cn2c1` [Compound 427, 7-(1,4-diazepan-1-yl)-3-(8-fluoro-6-methylimidazo[1,2-a]pyridin-2-yl)-2H-chromen-2-one]: the melting point was 242 to 252 °C. The EC (1.5-fold) in data set [1] lay in the range of 0.3 to 1 µM. Further, the “maximum fold (Fold) increase” value in the data set on Smn protein was “*** (fold increase between >1.35 and ≤1.5)”.

Take `CC(C)Oc1cccc(-c2cc3ccc(N4CCNCC4)cc3oc2=O)n1` [Cpd 385, 7-(piperazin-1-yl)-3-[6-(propan-2-yloxy)pyridin-2-yl]-2H-chromen-2-one]: the melting point lay within 177 to 180 °C. In addition, the EC (1.5-fold) in data set [1] was in the range of 1 to 3 µM. Further, the “maximum fold (Fold) increase” value in the data set with Smn protein is listed as “* (maximum fold increase of ≤1.2)”.

As to `COc1cc(-c2cc3ccc(N4CCN[C@@H](C)C4)cc3oc2=O)ccc1F` [Compound 577, 3-(4-fluoro-3-methoxyphenyl)-7-[(3S)-3-methylpiperazin-1-yl]-2H-chromen-2-one], the melting point was 189 to 191 °C. For the same compound, in data set [1], the EC (1.5-fold) is 1 to 3 µM. Further, the “maximum fold (Fold) increase” value with Smn protein was “** (fold increase between >1.2 and ≤1.35)”.

`Cc1cc(F)cn2cc(-c3cc4ccc(N5CCNCC5)cc4oc3=O)nc12` [Compound 328, 3-(6-fluoro-8-methylimidazo[1,2-a]pyridin-2-yl)-7-(piperazin-1-yl)-2H-chromen-2-one] returned a melting point of 223 to 230 °C. Also, the EC (1.5-fold) in data set [1] is 0.3 to 1 µM. For the same compound, the “maximum fold (Fold) increase” value with Smn protein is reported as “* (maximum fold increase of ≤1.2)”.

Take `CCN1CCCN(c2ccc3cc(-c4cc5cnc(C)cn5c4)c(=O)oc3c2)CC1` [Compound 667, 7-(4-ethyl-1,4-diazepan-1-yl)-3-(3-methylpyrrolo[1,2-a]pyrazin-7-yl)-2H-chromen-2-one]: the melting point was in the range of 130 to 133 °C. Besides, the EC (1.5-fold) in data set [1] was less than 0.1 µM. Further, in the data set with Smn protein, the EC1.5x (concentration giving 1.5-fold Smn protein increase) is less than 300 nM; the “maximum fold (Fold) increase” value was “**** (fold increase between >1.5 and ≤1.65)”.

`Cc1nccn2cc(-c3cc4ccc(N5C[C@@H](C)N[C@@H](C)C5)cc4oc3=O)cc12` [Compound 554, 7-[(3R,5S)-3,5-dimethylpiperazin-1-yl]-3-(1-methylpyrrolo[1,2-a]pyrazin-7-yl)-2H-chromen-2-one] displayed a melting point of 200 to 203 °C. In data set [1], the EC (1.5-fold) is less than 0.1 µM. In the data set with Smn protein, the EC1.5x (concentration giving 1.5-fold Smn protein increase) is less than 300 nM and the “maximum fold (Fold) increase” value is on record as “***** (fold increase >1.65)”.

`Cc1cn2cc(-c3cc4ccc(N(C)C5CCN(Cc6ccccc6)C5)cc4oc3=O)nc2c(C)n1` (stereo not drawn) [Compound 616, 7-[(1-benzylpyrrolidin-3-yl)(methyl)amino]-3-(6,8-dimethylimidazo[1,2-a]pyrazin-2-yl)-2H-chromen-2-one] had a melting point of 150 to 152 °C. In data set [1], the EC (1.5-fold) lay within 0.1 to 0.3 µM. Besides, in the data set with Smn protein, the “maximum fold (Fold) increase” value is “** (fold increase between >1.2 and ≤1.35)”.

`CC(=O)O.CC(=O)O.COc1nc(C)cn2cc(-c3cc4ccc(N5CCN(C)[C@H](C)C5)cc4oc3=O)nc12` [Compound 759, 7-[(3R)-3,4-dimethylpiperazin-1-yl]-3-(8-methoxy-6-methylimidazo[1,2-a]pyrazin-2-yl)-2H-chromen-2-one acetate (1:2)] displayed a melting point of 227 to 229 °C. Besides, the EC (1.5-fold) in data set [1] is less than 0.1 µM. Further, in the data set on Smn protein, the “maximum fold (Fold) increase” value was “*** (fold increase between >1.35 and ≤1.5)”.

The compound `Cc1cn2cc(-c3cc4ccc(CCCN(C)C)cc4oc3=O)ccc2n1` [Cpd 908, 7-[3-(dimethylamino)propyl]-3-(2-methylimidazo[1,2-a]pyridin-6-yl)-2H-chromen-2-one] showed a melting point of 176 to 178 °C. In addition, in data set [1], the EC (1.5-fold) fell in the range of 0.1 to 0.3 µM. Further, in the data set on Smn protein, the EC1.5x (concentration giving 1.5-fold Smn protein increase) is 300 to 1000 nM and the “maximum fold (Fold) increase” value is “***** (fold increase >1.65)”.

`Cc1cnc2nc(-c3cc4ccc(N5CCNCC5)cc4oc3=O)cn2c1` [Cpd 241, 3-(6-methylimidazo[1,2-a]pyrimidin-2-yl)-7-(piperazin-1-yl)-2H-chromen-2-one] showed a melting point of more than 300 °C. The EC (1.5-fold) in data set [1] lay in the range of 0.3 to 1 µM. Also, the “maximum fold (Fold) increase” value in the data set with Smn protein was “* (maximum fold increase of ≤1.2)”.

For the compound `C[C@@H]1CN(c2ccc3cc(-c4cn(-c5ccccn5)cn4)c(=O)oc3c2)C[C@H](C)N1` [Cpd 433, 7-[(3R,5S)-3,5-dimethylpiperazin-1-yl]-3-[1-(pyridin-2-yl)-1H-imidazol-4-yl]-2H-chromen-2-one], the melting point fell in the range of 201 to 206 °C. Also, in data set [1], the EC (1.5-fold) was in the range of 3 to 30 µM. In addition, the “maximum fold (Fold) increase” value in the data set on Smn protein was “* (maximum fold increase of ≤1.2)”.

Turning to `CCN(CC)CCCCc1ccc2cc(-c3cn4cc(C)nc(C)c4n3)c(=O)oc2c1` [Compound 970, 7-[4-(diethylamino)butyl]-3-(6,8-dimethylimidazo[1,2-a]pyrazin-2-yl)-2H-chromen-2-one], the melting point was 212 to 216 °C. Also, in data set [1], the EC (1.5-fold) was 0.3 to 1 µM. Further, in the data set on Smn protein, the EC1.5x (concentration giving 1.5-fold Smn protein increase) lay in the range of 300 to 1000 nM and the “maximum fold (Fold) increase” value is given as “***** (fold increase >1.65)”.

As to `Cc1cn2cc(-c3cc4ccc(N5CCC(N(CCO)CCO)CC5)cc4oc3=O)nc2c(C)n1` [Compound 928, 7-{4-[bis(2-hydroxyethyl)amino]piperidin-1-yl}-3-(6,8-dimethylimidazo[1,2-a]pyrazin-2-yl)-2H-chromen-2-one], the melting point lay within 209 to 212 °C. Moreover, the EC (1.5-fold) in data set [1] fell in the range of 0.1 to 0.3 µM. The “maximum fold (Fold) increase” value in the data set with Smn protein was “*** (fold increase between >1.35 and ≤1.5)”.

As to `Cl.O=c1oc2cc(N3CCNCC3)ccc2cc1-c1nc2cccc(Cl)c2s1` [Compound 6, 3-(7-chloro-1,3-benzothiazol-2-yl)-7-(piperazin-1-yl)-2H-chromen-2-one hydrochloride], the melting point was 320 °C (dec.). Also, the EC (1.5-fold) in data set [1] lay in the range of 1 to 3 µM. In addition, in the data set with Smn protein, the “maximum fold (Fold) increase” value is recorded as “* (maximum fold increase of ≤1.2)”.

The compound `Cc1cn2cc(-c3cc4ccc(N5CCN(C)[C@@H](C)C5)cc4oc3=O)ccc2n1` [Compound 675, 7-[(3S)-3,4-dimethylpiperazin-1-yl]-3-(2-methylimidazo[1,2-a]pyridin-6-yl)-2H-chromen-2-one] gave a melting point of 205 to 207 °C. Moreover, the EC (1.5-fold) in data set [1] is less than 0.1 µM. Further, in the data set on Smn protein, the EC1.5x (concentration giving 1.5-fold Smn protein increase) was 1000 to 3000 nM; the “maximum fold (Fold) increase” value is “**** (fold increase between >1.5 and ≤1.65)”.

The compound `Cc1ccn2cc(-c3cc4ccc(NCCN(C)C)cc4oc3=O)nc2c1` [Compound 470, 7-{[2-(dimethylamino)ethyl]amino}-3-(7-methylimidazo[1,2-a]pyridin-2-yl)-2H-chromen-2-one] returned a melting point of 156 to 159 °C. Moreover, in data set [1], the EC (1.5-fold) lay in the range of 1 to 3 µM. Moreover, in the data set on Smn protein, the “maximum fold (Fold) increase” value was “* (maximum fold increase of ≤1.2)”.

`C[C@@H]1CN(c2ccc3cc(-c4cc5ccccc5s4)c(=O)oc3c2)CCN1` [Compound 409, 3-(1-benzothiophen-2-yl)-7-[(3R)-3-methylpiperazin-1-yl]-2H-chromen-2-one]: the melting point lay in the range of 264 to 266 °C. Moreover, the EC (1.5-fold) in data set [1] lay within 1 to 3 µM. Moreover, the “maximum fold (Fold) increase” value in the data set with Smn protein was “* (maximum fold increase of ≤1.2)”.

As for `Cc1cn2cc(-c3cc4ccc(N5CCN(C)[C@@H](C)C5)cc4oc3=O)nc2c(C)n1` [Compound 672, 3-(6,8-dimethylimidazo[1,2-a]pyrazin-2-yl)-7-[(3S)-3,4-dimethylpiperazin-1-yl]-2H-chromen-2-one], the melting point lay in the range of 211 to 215 °C. Besides, the EC (1.5-fold) in data set [1] was less than 0.1 µM. In the data set with Smn protein, the EC1.5x (concentration giving 1.5-fold Smn protein increase) was less than 300 nM; the “maximum fold (Fold) increase” value was “**** (fold increase between >1.5 and ≤1.65)”.

Consider `Cc1cn2cc(-c3cc4ccc(N5C[C@@H]6CCN(C)[C@@H]6C5)cc4oc3=O)nc2c(C)n1` [Compound 706, 3-(6,8-dimethylimidazo[1,2-a]pyrazin-2-yl)-7-[(3aS,6aS)-1-methylhexahydropyrrolo[3,4-b]pyrrol-5(1H)-yl]-2H-chromen-2-one], for which the melting point was in the range of 252 to 262 °C. Further, in data set [1], the EC (1.5-fold) is less than 0.1 µM. In addition, in the data set with Smn protein, the EC1.5x (concentration giving 1.5-fold Smn protein increase) lay in the range of 300 to 1000 nM; the “maximum fold (Fold) increase” value was “**** (fold increase between >1.5 and ≤1.65)”.
